Biological target: T1, N-cadherin (Gallus gallus, UniProt P10288)
T1 construct: expressed in transfected cells; host or cells: 3T3 fibroblasts
T1 sequence (P10288 165-912): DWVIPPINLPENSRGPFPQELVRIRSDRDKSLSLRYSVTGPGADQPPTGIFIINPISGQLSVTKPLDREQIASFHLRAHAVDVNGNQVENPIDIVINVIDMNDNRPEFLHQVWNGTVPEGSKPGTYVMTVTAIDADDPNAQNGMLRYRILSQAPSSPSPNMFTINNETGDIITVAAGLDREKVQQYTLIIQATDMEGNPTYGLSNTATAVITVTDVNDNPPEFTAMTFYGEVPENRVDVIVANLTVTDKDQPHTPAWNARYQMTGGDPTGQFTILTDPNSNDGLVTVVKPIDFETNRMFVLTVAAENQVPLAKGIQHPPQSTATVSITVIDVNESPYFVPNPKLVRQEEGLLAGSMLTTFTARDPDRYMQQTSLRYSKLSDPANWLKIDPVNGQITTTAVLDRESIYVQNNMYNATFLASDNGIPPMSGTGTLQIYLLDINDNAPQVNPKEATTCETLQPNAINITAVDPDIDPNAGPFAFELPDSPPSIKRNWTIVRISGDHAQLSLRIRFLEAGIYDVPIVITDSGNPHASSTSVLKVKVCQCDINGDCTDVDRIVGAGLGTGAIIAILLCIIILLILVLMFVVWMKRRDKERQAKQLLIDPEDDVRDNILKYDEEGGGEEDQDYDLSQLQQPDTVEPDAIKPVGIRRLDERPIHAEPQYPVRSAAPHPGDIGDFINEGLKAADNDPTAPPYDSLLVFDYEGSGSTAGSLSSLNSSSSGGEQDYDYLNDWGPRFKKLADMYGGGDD
Assay: Neurite outgrowth of mouse cerebellar neurons on 3T3 cells expressing N-cadherin (Example 2)
Assay type: cell-based
Excerpt: Within a representative neurite outgrowth assay, neurons may be cultured on a monolayer of cells (e.g., 3T3) that express N-cadherin. […] For example, neurons may be cultured on monolayers of 3T3 cells transfected with cDNA encoding N-cadherin essentially as described by Doherty and Walsh, Curr. Op. Neurobiol. 4:49-55, 1994; Williams et al., Neuron 13:583-594, 1994; Hall et al., Cell Adhesion and Commun. 3:441-450, 1996; Doherty and Walsh, Mol. Cell. Neurosci. 8:99-111, 1994; and Safell et al., Neuron 18:231-242, 1997. Briefly, monolayers of control 3T3 fibroblasts and 3T3 fibroblasts that express N-cadherin may be established by overnight culture of 80,000 cells in individual wells of an 8-chamber well tissue culture slide. 3000 cerebellar neurons isolated from post-natal day 3 mouse brains may be cultured for 18 hours on the various monolayers in control media (SATO/2%FCS), or media supplemented with various concentrations of the modulating agent or control peptide. The cultures may then be fixed and stained for GAP43 which specifically binds to the neurons and their neurites. The length of the longest neurite on each GAP43 positive neuron may be measured by computer assisted morphometry.
A modulating agent that modulates N-cadherin-mediated cell adhesion may inhibit or enhance such neurite outgrowth. Under the conditions described above, the presence of 500 μg/mL of a modulating agent that disrupts neural cell adhesion should result in a decrease in the mean neurite length by at least 50%, relative to the length in the absence of modulating agent or in the presence of a negative control peptide. Alternatively, the presence of 500 μg/mL of a modulating agent that enhances neural cell adhesion should result in an increase in the mean neurite length by at least 50%.
Neurons were cultured on monolayers of 3T3 cells transfected with cDNA encoding N-cadherin essentially as described by Doherty and Walsh, Curr. Op. Neurobiol. […] The length of the longest neurite on each GAP43 positive neuron was then measured by computer assisted morphometry.

Row | Compound | effect on neurite outgrowth on 3T3 cells expressing N-cadherin (50 μg/mL, dose-response study) | effect on neurite outgrowth on 3T3 cells expressing N-cadherin (500 μg/mL, 18 hours)
1 | CC(=O)N[C@H]1CSSC[C@@H](C(N)=O)NC(=O)[C@H](C(C)C)NC(=O)[C@H](C)NC(=O)[C@H](Cc2c[nH]cn2)NC1=O [N-Ac-CHAVC-NH2, N-Ac-Cys-His-Ala-Val-Cys-NH2] | significantly inhibited neurite outgrowth | completely inhibited neurite outgrowth
2 | CC(=O)N[C@H]1CSSC[C@@H](C(N)=O)NC(=O)[C@H](C(C)C)NC(=O)CNC(=O)[C@H](Cc2c[nH]cn2)NC1=O [N-Ac-CHGVC-NH2, reference compound] | – | had no effect

From patent publication US20030224978A1, “Compounds and methods for modulating apoptosis” (McGill University, priority 1996, published 2003)
